Reference: US20250325535A1, “IDENTIFICATION OF NOVEL SMALL-MOLECULE INHIBITORS OF SARS-CoV-2 BY CHEMICAL GENETICS” (The University of Hong Kong, priority 2024, published 2025)

What was measured:
[1] = tested on: 44 selected host targets including 24 GPCRs, 8 ion channels, 7 enzymes, 3 monoamine transporters, and 2 nuclear hormone receptors; conditions: 10 μM
Wild Type SARS-CoV-2 = test: Golden Syrian hamster experiment; format: in vivo
Caco-2 cells = format: in vitro ADME
Protocol: Caco-2 cells are seeded onto 0.4 μm pore polycarbonate membranes (PC) in 96-well Corning Insert plates at a density of 3.5×10^4 cells/cm2.HBSS with 10.0 mM HEPES at pH 7.40±0.05 as the transport buffer. The compound is subjected to bidirectional testing in triplicate at 2.00 μM. The plate is incubated in a CO2 incubator with 5% CO2 at 37.0° C. and saturated humidity for two hours without shaking. All samples are centrifuged at 3220 g for 10 minutes after being combined with acetonitrile containing internal standard. Using the peak area ratio of the analyte/internal standard, LC-MS/MS techniques are used to quantify the concentrations of the compound in the beginning solution, donor solution, and recipient solution. Following transportation, lucifer yellow rejection assay is applied to determine the Caco-2 cell monolayer integrity.
For data analysis, Permeability (Papp), efflux ratio and Percent recovery are calculated using the following equations: […]

[2] = format: in vitro ADME, CD-1 mouse or human; conditions: microsomes
Protocol: Mouse and Human Liver Microsomes are respectively provided by RILD and coming. They are collected from CD-1 mouse or human and prepared in 100 mM potassium phosphate buffer. […] Aliquots are sampled at 0, 5, 15, 30, 45, and 60 min for LC-MS/MS analysis.

HCoV-229E = format: cell-based
VeroE6 cells = test: in vitro; format: cell-based; conditions: African green monkey, 72 h, 100 μM
Protocol: (§1) FIG. 9. MTT cytotoxicity assays of SMART™ finalized hits compounds on VeroE6 cells. VeroE6 cells are treated with compounds of interest diluted from 100 μM to 0.78 μM in a 2-fold interval and incubate for 72 hours.
(§2) Briefly, cells are seeded onto a 96-well plate at a density of 20,000 cells per well one day before treatment. On the following day, compounds of interest are added to the cells in gradient concentrations and incubated at 37° C. with 5% CO2 for either 48 or 96 hours. After medium removal, 100 μL of 1×MTT solution in plain DMEM is added to the cells and incubated at 37° C. with 5% CO2 for 3-4 hours. Then, MTT lysis buffer (10% SDS/10 mM HCl) is added to the cells and incubated at room temperature for 3-4 hours. Cell viability is measured in absorbance (OD595) using a plate reader (Glomax, Promega).

in vitro = format: cell-based; conditions: African green monkey
Protocol: as §1, §2

MERS-CoV = format: cell-based
[3] = Balb/c mouse, single intraperitoneal 5 mg/kg
SARS-CoV = format: cell-based
[4] = tested on: recombinant WT SARS-CoV-2; test: microbe, parasite or virus in culture; format: cell-based; conditions: for IC50: Severe acute respiratory syndrome coronavirus 2, recombinant WT virus, read-out: IC50 (plaque formation assay)

SMILES	off-target effects on host proteins [1]	viral yield reduction in lung and nasal turbinate vs control group (Wild Type SARS-CoV-2; 1 mg/kg IP at 12-hour intervals, day 3) [log 10]	permeability (Caco-2 cells)	metabolic stability [2]	viral RNA reduction in supernatant (HCoV-229E)	cell viability in MTT assay (VeroE6 cells)	CC50 at 72 h (in vitro) [µM]	reduction in normalized expression of N gene in cell lysate (MERS-CoV) [log10]	Cmax [3] [µM]	reduction of SARS-CoV viral load (SARS-CoV) [log 10]	IC50 [4] [µM]	protection (viral yield reduction) in animal lungs (Wild Type SARS-CoV-2; Nirmatrelvir 200 mg/kg IP, Pelitinib oral 10 mg/kg, 12-hour intervals) [log 10]	protection (viral yield reduction) in animal lungs (Wild Type SARS-CoV-2; in vivo)	inhibition of virus replication ([4]; WT virus)
Cc1ccc(C2C3=C(CC(c4ccccc4)CC3=O)NC3=C2C(=O)c2ccccc23)cc1 (stereo not shown) [Compound 172, 10-(4-methylphenyl)-7-phenyl-6,7,8,10-tetrahydro-5H-indeno[1,2-b]quinoline-9,11-dione]	no significant off-target effects	1	moderate	moderate	more than 3 log 10	over 90%	> 100	> 5	6.89	1	3.88			
CC(C)(C)[C@H](NC(=O)C(F)(F)F)C(=O)N1C[C@H]2[C@@H]([C@H]1C(=O)N[C@H](C#N)C[C@@H]1CCNC1=O)C2(C)C [Nirmatrelvir]											0.0184	> 4		
CCOc1cc2ncc(C#N)c(Nc3ccc(F)c(Cl)c3)c2cc1NC(=O)/C=C/CN(C)C [Pelitinib]											1.62		marginal	dose-dependent inhibition of WT virus replication
